# Measured values published in patent US4094964A, “Clonidine assay” (Hoffmann-La Roche Inc., priority 1977, dated 1978).
# Test system: antibody in the antiserum of rabbit immunized by the clonidine bovine serum albumin immunogen
# Assay: Radioimmunoassay specificity: competition with clonidine-14C for binding to the antiserum
# Settings: 100 ng to 500 pg of competitor, antiserum 1:50, about 18 hours at 4° C., pH 7.4
# Protocol: The antiserum of Example 3 as used for the radioimmunoassay was diluted with normal rabbit serum which was diluted with phosphate-buffered saline, pH 7.4, at 1:10-dilution. To determine the antibody titre of antiserum, 0.1 ml of various dilutions of the antiserum was incubated in an assay tube (10 × 75 mm) with 2 ng of clonidine ^14 C approximately 3,000 cpm at 4° C. for about 18 hours. The volume was adjusted to 0.5 ml with phosphate-buffered saline, pH 7.4, which is the optimal pH for the assay. The antibody bound clonidine was separated from free clonidine by the addition of saturated ammonium sulfate which was adjusted to pH 7.4 with ammonium hydroxide as described by Farr, J. Infect. Dis 103, 239 (1958). After 2 washings with 50% saturated ammonium sulfate, the precipitate was dissolved in 0.5 ml of water. The content of the tube was transferred to counting vial and the tube was then washed 4 times with 3 ml of Riafluor. The 12 ml washings were all collected in the vial. The radioactivity was then counted with a Beckman liquid scintillation counter. The dilution of the antiserum chosen for further studies was 1:50.
# Appropriate volume of phosphate-buffered saline, pH 7.4 was added to all tubes containing 0.1 ml of the antiserum to make a final incubation volume of 0.5 ml. To the tubes were added 100 ul of clonidine-^14 C and various quantities ranging from 100 ng to 500 pg of clonidine, 2-(2,6-dichloro-4-hydroxyanilino)-2-imidazoline (4-hydroxyclonidine), 2-(2,6-dichloro-4-sulfonamidoanilino)-2-imidazoline (4-sulfonamidoclonidine),2-(2-chloro-3-methylanilino)-2-imidazoline, 2-(2-chloro-4-methylanilino)-2-imidazoline, 2-(2-chloro-6-methylanilino)-2-imidazoline, 2-anilino-2-imidazoline, 2-(2,6-dichloro-anilino)-2-methyl-2-imidazoline (2-methylclonidine), 2-(2,6-dichloroanilino)-1-methyl-2-imidazoline (1-methylclonidine), 1-acetamido-2-(2,6-dichloroanilino)-2-imidazoline (1-acetamidoclonidine), 2-(2,6-dichloroanilino)-2-pyrroline, 2-(2,6-dichloroanilino)-2-oxazoline, 2-(2,6-dichloroanilino)-2-benzimidazole, 2-(2,6-dichloroanilino)-1,3-dimethylquanidine, 2-(2,6-dichloroanilino)-1-methylguanidine, 2-(2,6-dichloroanilino)quanidine, aniline or 2-(2,6-dichlorobenzyl)-2-imidazoline. The tubes were then incubated for about 18 hours at 4° C. followed by precipitation with ammonium sulfate.
# The specificity of the antibody in the antiserum of rabbit immunized by the clonidine bovine serum albumin immunogen was determined by incubating the antiserum with 2-(2,6-dichloro-4-hydroxyanilino)-2-imidazoline (4-hydroxyclonidine), 2-(2,6-dichloro-4-sulfonamidoanilino)-2-imidazoline (4-sulfonamidoclonidine), 2-(2-chloro-3-methylanilino)-2-imidazoline, 2-(2-chloro-4-methylanilino)-2-imidazoline, 2-(2-chloro-6-methylanilino)-2-imidazoline, 2-anilino-2-imidazoline, 2-(2,6-dichloroanilino)-2-methyl-2-imidazoline (2-methylclonidine), 2-(2,6-dichloroanilino)-1-methyl-2-imidazoline (1-methylclonidine), 1-acetamido-2-(2,6-dichloroanilino)-2-imidazoline (1-acetamidoclonidine), 2-(2,6-dichloroanilino)-2-pyrroline, 2-(2,6-dichloroanilino)-2-oxazoline, 2-(2,6-dichloroanilino)-2-benzimidazole, 2-(2,6-dichloroanilino)-1,3-dimethylguanidine, 2-(2,6-dichloroanilino)-1-methylguanidine, 2-(2,6-dichloroanilino)guanidine, aniline or 2-(2,6-dichlorobenzyl)-2-imidazoline in the presence of labelled clonidine.
row,Molecule,recognition by the antibody in the presence of labelled clonidine
1,"2-(2,6-dichloroanilino)-1,3-dimethylguanidine",failed to recognize
2,"2-(2,6-dichloroanilino)-2-methyl-2-imidazoline",failed to recognize
3,"2-(2,6-dichloroanilino)guanidine [2-(2,6-dichloro-anilino)guanidine]",failed to recognize
4,"CC(=O)NN1CCN=C1Nc1c(Cl)cccc1Cl [1-acetamido-2-(2,6-dichloroanilino)-2-imidazoline]",recognized
5,"Oc1cc(Cl)c(NC2=NCCN2)c(Cl)c1 [2-(2,6-dichloro-4-hydroxyanilino)-2-imidazoline]",recognized
6,"NS(=O)(=O)c1cc(Cl)c(NC2=NCCN2)c(Cl)c1 [2-(2,6-dichloro-4-sulfonamidoanilino)-2-imidazoline]",recognized
7,"Clc1cccc(Cl)c1NC1=NCCO1 [2-(2,6-dichloro-anilino)-2-oxazoline, 2-(2,6-dichloroanilino)-2-oxazoline]",failed to recognize
8,"CN1CCN=C1Nc1c(Cl)cccc1Cl [2-(2,6-dichloroanilino)-1-methyl-2-imidazoline]",failed to recognize
9,"Clc1cccc(Cl)c1CC1=NCCN1 [2-(2,6-dichlorobenzyl)-2-imidazoline]",failed to recognize
10,Cc1cccc(NC2=NCCN2)c1Cl [2-(2-chloro-3-methylanilino)-2-imidazoline],recognized
11,Cc1ccc(NC2=NCCN2)c(Cl)c1 [2-(2-chloro-4-methylanilino)-2-imidazoline],recognized
12,Cc1cccc(Cl)c1NC1=NCCN1 [2-(2-chloro-6-methylanilino)-2-imidazoline],recognized
13,c1ccc(NC2=NCCN2)cc1 [2-anilino-2-imidazoline],failed to recognize
14,Nc1ccccc1 [aniline],failed to recognize

# Same assay, conditions: antiserum 1:50, about 18 hours at 4° C., pH 7.4
row,Molecule,concentration required relative to that of clonidine (cross-reactivity)
1,"2-(2,6-dichloroanilino)-1-methylguanidine",about 40 times that of clonidine
2,"Clc1cccc(Cl)c1NC1=CCCN1 [2-(2,6-dichloroanilino)-2-pyrroline]",about 40 times that of clonidine

# Same assay, conditions: read-out: concentration producing a 50% inhibition of binding of clonidine-14C to the antibody; antiserum 1:50, about 18 hours at 4° C., pH 7.4, ammonium sulfate precipitation
row,Molecule,IC50 [nM]
1,Clc1cccc(Cl)c1N=C1NCCN1 [Clonidine],25
